Data: patent US8420311B2, “Method to block the infection by flaviviruses, molecules and uses” (Centro de Ingenieria Genetica y Biotecnologia, priority 2006, dated 2013)
Bridges are numbered along the chain shown (N, C = ends). Where no end group is shown, it is not given here.

Experiments:
[1] = test system: DV1; type: cell-based, dengue virus; conditions: peptides 0.1 mg/ml; Vero cells
Procedure: (§1) FIG. 17. Inhibition of the infection of Vero cells with DV1 and DV2. (A) Six-well plates with a monolayer at approximately 90% confluence were incubated for 30 min. at 37° C. with dilutions of the peptides in MEM medium. A dilution of either DV1 strain West Pac 74 or DV2 strain S16803 was then added, calculated so as to obtain an average of 100 lytic plaques per well, and the plates were incubated for 30 min. at 37° C. with the virus/peptide mixture. After the incubation the cells were washed twice, received the addition of MEM medium supplemented with non-essential amino acids, 1% fetal calf serum, 1% CMC, and finally were incubated for 5 days at 37° C. under a CO2 atmosphere. (B) Inhibitory effect of the peptides at 100 μMol/L. NRpep: Non-related peptide. Data on the sequence of the peptides 3H5pept (SEQ ID. 27), pepDIII-1 (SEQ ID. 28), HIII2CL (SEQ ID. 5) and HIII3CL (SEQ ID. 7), as well as on the region they span on DIII from DV, can be obtained from FIG. 11. The calculation of the inhibition percentages is described in Materials and Methods. (C) Inhibition of DV2 infection by using varying peptide concentrations. The viral plaques were visualized by staining with Naphtol Blue Black. Cell control: Untreated cells. Virus control: Cells incubated with the virus, but without peptide.
(§2) DIII has one of the most variable regions of the exposed surface of protein E. In fact, one of the antigenic characteristics of this domain is that the antibodies obtained against this region are predominantly serotype-specific (Roehrig J T, Bolin R A, Kelly R G (1998) Monoclonal antibody mapping of the envelope glycoprotein of the dengue 2 virus, Jamaica Virology 246:317-28). However, during the inhibition assay with different DV serotypes, the peptides display a wide-spectrum inhibitory activity, efficiently inhibiting the infection of strains of the homologous, as well as of the heterologous serotypes (table 3). It is important to notice that at the assayed concentration (0.1 mg/ml) all the peptides in all the conditions, with the exception of peptide HIII4CL for DV3, produced higher than 50% inhibition levels.

[2] = test system: DV2; type: cell-based, dengue virus; conditions: peptides 0.1 mg/ml; Vero cells
Procedure: as §1, §2

[3] = test system: DV3; type: cell-based, dengue virus; conditions: peptides 0.1 mg/ml; Vero cells
Source text: as §2

[4] = test system: DV4; type: cell-based, dengue virus; conditions: peptides 0.1 mg/ml; Vero cells
Source text: as §2

[5] = test system: A2MR receptor; test: Effect of peptides on the binding of fluoresceinated A2M and RAPR13 to Vero cells (flow cytometry); type: cell-based, monkey; conditions: increasing peptide concentrations (FIG. 19)
Procedure: FIG. 19. Effect produced on the binding of A2M and RAPR13 to the surface of Vero cells by simultaneous incubation with the peptides. The fluoresceinated A2M and RAP13 proteins were incubated for 30 min. at 4° C. with pre-fixed Vero cells in the presence of varying concentrations of HIII2CL and 3H5pept in order to reach the indicated molar peptide/protein ratios. The binding of the labeled ligands was detected by flow cytometry.
In order to obtain a direct evidence of the interaction with the A2MR receptor, the effect of one of the designed peptides on the binding of the natural ligands of A2MR to Vero cells was investigated. The assay was performed with fluoresceinated A2M and RAPR13, measuring their binding to Vero cells in the presence of increasing concentrations of the HDIII2CL peptide. The amount of protein bound to the cells was estimated by flow cytometry, using recombinant human EGF (rhEGF) as a negative control for the experiment, since it is known that Vero cells express the EGF receptor in their surface (Copp J, Wiley S, Ward M W, van der Geer P (2005) Hypertonic shock inhibits growth factor receptor signaling, induces caspase-3 activation, and causes reversible fragmentation of the mitochondrial network. Am J Physiol Cell Physiol. 288:C403-15).

[6] = test system: mAb 3H5; test: Recognition by mAb 3H5 in Western blotting / dot blotting; type: binding; conditions: signal lost upon reduction and carbamidomethylation
Source text: FIG. 12. (A) Sequence of the peptides designed to mimic different regions on the surface of DIII. The residue numbering corresponds to the sequence for protein E of DV serotype 2, strain Jamaica 1409, available from the Swiss-Prot databank with access number P07564. The underlined residues are not present in protein E and were introduced during design. The cysteine residues are used to restrict the structural mobility of the peptide by a disulphide bridge. (B) Recognition of the HDIII2Cs peptide by the neutralizing antibody 3H5 in a Western blotting assay. 50 μg of the BSA-peptide conjugates and 20 μg of the recombinant protein PD5 were electrophoresed on a 12.5% SDS-PAGE gel and transferred to a nitrocellulose membrane. After blocking, the membrane was incubated with a dilution (30 μg/mL) of the 3H5 mAb for 2 hours at 25° C. The bound antibody was detected with an anti-mouse IgG-peroxidase conjugate, and the blots were developed using chemiluminescence. (C) Two pieces of nitrocellulose membrane were sensitized in parallel with 10 μg of each variant of the protein and of the peptides. […]
With the aim of evaluating the recognition of peptide HDIII2Cs by mAb 3H5, peptide-BSA conjugates were prepared and analyzed by Western blotting with this antibody (FIG. 12B). […]

[7] = test system: DV; test: Inhibition of the infection of Vero cells with DV by pre-incubation of the virus with A2M; type: cell-based, dengue virus; conditions: incubation times with virus longer than 30 minutes (FIG. 20B)
Procedure: FIG. 20. Inhibition of the infection of Vero cells with DV by pre-incubation with A2M. Viral preparations were incubated 1 h at 25° C. (A and C) or the indicated time (B) with the proteins i. e. activated A2M (A2Mact), non-activated A2M (A2M no act) and a non-related protein (NR). The mixtures of the proteins with the virus were added to monolayers of Vero cells and incubated for 1 h at 37° C. The cell monolayers were washed to eliminate non-bound virus. Next, medium MEM supplemented with non-essential amino acids and 1% FBS, 1% CMC was added and the cells were incubated for 5 days at 37° C. in a CO2 incubator. To visualize the viral plaques, Vero cells were stained using Naphtol Blue Black. All experimental points were performed on duplicates.
To obtain further evidences of the interaction of DV with A2M, the two variants of the protein i.e. activated and non-activated were used in assays of inhibition of infection of Vero cells. The viral preparation was incubated with solutions of activated A2M of higher concentrations than the physiological concentrations reached by this variant of the protein. Solutions of equimolar concentration of non-activated A2M and a non-related protein were used as negative controls. […]

Molecule: 3H5pept: peptide reported in the literature as part of the epitope recognized by mAb 3H5, SEQ ID. 27 (KAQLKLNWFKKGSS) [Peptide 3H5pept, reference compound]
- degree of reduction of the number of viral plaques, DV1 [1]: − (Less than 10% decrease in the number of plaques)
- degree of reduction of the number of viral plaques, DV2 [2]: − (Less than 10% decrease in the number of plaques)
- degree of reduction of the number of viral plaques, DV3 [3]: − (Less than 10% decrease in the number of plaques)
- degree of reduction of the number of viral plaques, DV4 [4]: − (Less than 10% decrease in the number of plaques)
- amount of surface-bound RAPR13 [5]: does not produce variations

Molecule: HDIII2Cs: cyclic peptide corresponding to Ile379-Lys388 from protein E of DV2, Seq. ID. 4 (CIIGVEPGQLKC-NH2; disulfide 1-12)
- degree of reduction of the number of viral plaques, DV1 [1]: − (Less than 10% decrease in the number of plaques)
- degree of reduction of the number of viral plaques, DV2 [2]: − (Less than 10% decrease in the number of plaques)
- degree of reduction of the number of viral plaques, DV3 [3]: − (Less than 10% decrease in the number of plaques)
- degree of reduction of the number of viral plaques, DV4 [4]: − (Less than 10% decrease in the number of plaques)
- recognition by mAb 3H5 [6]: recognized by mAb 3H5

B1: non-activated A2M: non-activated variant of purified human A2M (protein)
chain: SVSGKPQYMVLVPSLLHTETTEKGCVLLSYLNETVTVSASLESVRGNRSLFTDLEAENDVLHCVAFAVPKSSSNEEVMFLTVQVKGPTQEFKKRTTVMVKNEDSLVFVQTDKSIYKPGQTVKFRVVSMDENFHPLNELIPLVYIQDPKGNRIAQWQSFQLEGGLKQFSFPLSSEPFQGSYKVVVQKKSGGRTEHPFTVEEFVLPKFEVQVTVPKIITILEEEMNVSVCGLYTYGKPVPGHVTVSICRKYSDASDCHGEDSQAFCEKFSGQLNSHGCFYQQVKTKVFQLKRKEYEMKLHTEAQIQEEGTVVELTGRQSSEITRTITKLSFVKVDSHFRQGIPFFGQVRLVDGKGVPIPNKVIFIRGNEANYYSNATTDEHGLVQFSINTTNVMGTSLTVRVNYKDRSPCYGYQWVSEEHEEAHHTAYLVFSPSKSFVHLEPMSHELPCGHTQTVQAHYILNGGTLLGLKKLSFYYLIMAKGGIVRTGTHGLLVKQEDMKGHFSISIPVKSDIAPVARLLIYAVLPTGDVIGDSAKYDVENCLANKVDLSFSPSQSLPASHAHLRVTAAPQSVCALRAVDQSVLLMKPDAELSASSVYNLLPEKDLTGFPGPLNDQDDEDCINRHNVYINGITYTPVSSTNEKDMYSFLEDMGLKAFTNSKIRKPKMCPQLQQYEMHGPEGLRVGFYESDVMGRGHARLVHVEEPHTETVRKYFPETWIWDLVVVNSAGVAEVGVTVPDTITEWKAGAFCLSEDAGLGISSTASLRAFQPFFVELTMPYSVIRGEAFTLKATVLNYLPKCIRVSVQLEASPAFLAVPVEKEQAPHCICANGRQTVSWAVTPKSLGNVNFTVSAEALESQELCGTEVPSVPEHGRKDTVIKPLLVEPEGLEKETTFNSLLCPSGGEVSEELSLKLPPNVVEESARASVSVLGDILGSAMQNTQNLLQMPYGCGEQNMVLFAPNIYVLDYLNETQQLTPEVKSKAIGYLNTGYQRQLNYKHYDGSYSTFGERYGRNQGNTWLTAFVLKTFAQARAYIFIDEAHITQALIWLSQRQKDNGCFRSSGSLLNNAIKGGVEDEVTLSAYITIALLEIPLTVTHPVVRNALFCLESAWKTAQEGDHGSHVYTKALLAYAFALAGNQDKRKEVLKSLNEEAVKKDNSVHWERPQKPKAPVGHFYEPQAPSAEVEMTSYVLLAYLTAQPAPTSEDLTSATNIVKWITKQQNAQGGFSSTQDTVVALHALSKYGAATFTRTGKAAQVTIQSSGTFSSKFQVDNNNRLLLQQVSLPELPGEYSMKVTGEGCVYLQTSLKYNILPEKEEFPFALGVQTLPQTCDEPKAHTSFQISLSVSYTGSRSASNMAIVDVKMVSGFIPLKPTVKMLERSNHVSRTEVSSNHVLIYLDKVSNQTLSLFFTVLQDVPVRDLKPAIVKVYDYYETDEFAIAEYNAPCSKDLGNA
- increase of viral infection [7]: ≤ 50%
